# Measurements as given in patent EP0565593B1, “REDUCING PESTICIDAL INTERACTIONS IN CROPS” (priority 1990, dated 1992).
# Where “and” joins values, the source holds several entries; their conditions need not be identical. Identical values can stand only once. Like-named read-outs stand apart in the source and are kept apart here.
# Columns and labels:
# Giant foxtail (GIFT) = test: Greenhouse test Procedure VII (same examples); type: in vivo
# Description: (§1) This procedure describes interaction among herbicide, biocide and antidote when the biocide and the antidote is applied to a soil furrow containing crop seed before emergence of the crop and the herbicide is applied after emergence of the crop and weeds. The soil and planting depth was described in Procedure IV. The containers for comparison, the biocide and antidote applications to soil furrows were described in Procedure VI. In this procedure, the seed beds of the first, second, third and fourth containers are covered by soil layers not treated with herbicide. The containers were then placed on a bench in a greenhouse and subirrigated as required for the duration of the test. The herbicide, dispersed or dissolved in water containing 0.25% v/v nonionic surfactant (X-77) was applied by a track sprayer (187 L/ha) to the emerged plants of the second, third and fourth containers about five days after planting. All treatments were run in duplicate. Plant response was observed according to Procedure IV. Variations in this procedure will be noted in the examples.
# In these tests (according to Procedure VII) the safeners in solution with acetone were applied in furrow to the soil, followed by COUNTER 15G granules at 227 g/305 m (8 oz./1000'). Applications were made in alternate rows in two separate 13.7 cm x 27.7 cm pans containing Dupo silt loam. Pans were seeded 1.3 cm deep, placed on benches in a greenhouse and subirrigated. BEACON was formulated in water with 0.25% v/v X-77 surfactant and applied by track sprayer at a rate of 187 L/Ha (20 gal/A). Weed species in this test were giant foxtail, shattercane and velvetleaf. The herbicide was applied five (5) days after PPI initiation and observation of test result (shown in Table 47) made eight (8) days later.
# In Table 47 COUNTER 15G is abbreviated as "C" and the antidotes as "A" in the column headings which indicate the "C + A" ratios used in the tests. Control and COUNTER treatments are average of four (4) replications and COUNTER + Antidote treatments, average of 2 reps.
# Velvetleaf (VELE) [1] = test: Greenhouse test Procedure VII (same examples); type: in vivo, Abutilon theophrasti
# Description: as §1
# In this example, tests were conducted according to Procedure VII for the POE application of the herbicides following in-furrow application of COUNTER® 15G insecticide (BIOCIDE No. 1) and the antidote on the pre-planted test seeds. In this test, the herbicides were Nos. 1 (MON-12000), 10 (ALLY®) and #4 (HARMONY®) and the Antidote Nos. 1, 7, 12 and 33.
# These in-furrow treatments comprised a 50-50 mix of blended granules of COUNTER with and without 5G granular antidotes at 7.4 + 7.4 mg/cm or 1.1 + 0.37 mg active ingredient (a.i.)/cm. The in-furrow initiation of the test was followed five (5) days later with POE application of the herbicides; observations were made eight (8) days later. Table 38 […]
# Velvetleaf (VELE) [2] = type: in vivo, Abutilon theophrasti
# [3] = Antidote + Biocide No. 1 in furrow, Herbicide No. 1 0.14 Kg/Ha POE, 8 days after POE
# [4] = Antidote + Biocide No. 1 in furrow, Herbicide No. 4 0.17 Kg/Ha POE, 8 days after POE
# [5] = Antidote + Biocide No. 1 in furrow, Herbicide No. 5 0.07 Kg/Ha POE, 8 days after POE
# [6] = Antidote + Biocide No. 1 in furrow, Herbicide No. 6 0.01 Kg/Ha POE
# [7] = Antidote + Biocide No. 1 in furrow, Herbicide No. 7 0.56 Kg/Ha POE, 8 days after POE
# [8] = Antidote + Biocide No. 1 in furrow, Herbicide No. 9 0.009 Kg/Ha POE
# [9] = Antidote + Biocide No. 1 in furrow, Herbicide No. 10 0.002 Kg/Ha POE, 8 days after POE
# [10] = Antidote + Biocide No. 1 in furrow, Herbicide No. 15 0.0044 Kg/Ha POE, 8 days after POE
# [11] = Antidote + Biocide No. 1 in furrow, Herbicide No. 16 0.01 Kg/Ha POE
# [12] = Antidote + Biocide No. 1 in furrow, Herbicide No. 18 0.0044 Kg/Ha POE
# [13] = Antidote + Biocide No. 1 in furrow, Herbicide No. 19 0.28 Kg/Ha POE
# [14] = Antidote + Biocide No. 1 in furrow, Herbicide No. 21 0.14 Kg/Ha POE
# [15] = Antidote + Biocide No. 1 in furrow, Herbicide No. 23 0.0006 Kg/Ha POE
# [16] = Herbicide No. 1 0.14 Kg/Ha POE + Biocide No. 1 in furrow, no antidote, 8 days after POE
# [17] = Herbicide No. 1 0.14 Kg/Ha POE alone, 8 days after POE
structure (smiles),measurement,setting,value
CC1(C)OC(c2ccco2)CN1C(=O)C(Cl)Cl (stereo not drawn) [compound 1],% Inhibition GIFT,Giant foxtail (GIFT); [3],0%
same,% Inhibition GIFT,Giant foxtail (GIFT); [4],0%
same,% Inhibition GIFT,Giant foxtail (GIFT); [5],0%
same,% Inhibition GIFT,Giant foxtail (GIFT); [6],60%
same,% Inhibition GIFT,Giant foxtail (GIFT); [7],85%
same,% Inhibition GIFT,Giant foxtail (GIFT); [8],30%
same,% Inhibition GIFT,Giant foxtail (GIFT); [9],0%
same,% Inhibition GIFT,Giant foxtail (GIFT); [10],20%
same,% Inhibition GIFT,Giant foxtail (GIFT); [11],35%
same,% Inhibition GIFT,Giant foxtail (GIFT); [12],65%
same,% Inhibition GIFT,Giant foxtail (GIFT); [13],35%
same,% Inhibition GIFT,Giant foxtail (GIFT); [14],35%
same,% Inhibition GIFT,Giant foxtail (GIFT); [15],20%
same,% Inhibition GIFT,Giant foxtail (GIFT); [16],0%
same,% Inhibition GIFT,Giant foxtail (GIFT); [17],0%
same,% Inhibition VELE,Velvetleaf (VELE) [1]; [3],95%
same,% Inhibition VELE,Velvetleaf (VELE) [1]; [4],90%
same,% Inhibition VELE,Velvetleaf (VELE) [1]; [5],95%
same,% Inhibition VELE,Velvetleaf (VELE) [1]; [6],60%
same,% Inhibition VELE,Velvetleaf (VELE) [1]; [7],75%
same,% Inhibition VELE,Velvetleaf (VELE) [1]; [8],90%
same,% Inhibition VELE,Velvetleaf (VELE) [1]; [9],90%
same,% Inhibition VELE,Velvetleaf (VELE) [1]; [10],75%
same,% Inhibition VELE,Velvetleaf (VELE) [1]; [11],35%
same,% Inhibition VELE,Velvetleaf (VELE) [1]; [12],65%
same,% Inhibition VELE,Velvetleaf (VELE) [1]; [13],65%
same,% Inhibition VELE,Velvetleaf (VELE) [1]; [14],85%
same,% Inhibition VELE,Velvetleaf (VELE) [1]; [15],60%
same,% Inhibition VELE,Velvetleaf (VELE) [1]; [16],90%
same,% Inhibition VELE,Velvetleaf (VELE) [1]; [17],85%
same,% Inhibition 5 DAP VELE,"Velvetleaf (VELE) [2]; Antidote 4.48 + Biocide No. 1 8.96 Kg/Ha PPI, Herb. No. 8 0.07, 5 DAP, before herbicide application",0%
same,% Inhibition 13 DAP VELE,"Velvetleaf (VELE) [2]; Antidote 4.48 + Biocide No. 1 8.96 Kg/Ha PPI, Herb. No. 8 0.07 POE, 13 DAP",90%
same,% Inhibition VELE,"Velvetleaf (VELE) [2]; Antidote 4.48 + Biocide No. 1 8.96 Kg/Ha PPI, Herbicide No. 7 0.28 POE, 13 days after planting",70%
same,% Inhibition 5 DAP VELE,"Velvetleaf (VELE) [2]; Herb. […], 5 DAP, before herbicide application",0%
same,% Inhibition VELE,"Velvetleaf (VELE) [2]; Table 14: Herbicide No. 7 (ACCENT) 0.84 Kg/Ha POE + Biocide No. 2 8.96 Kg/Ha PPI + antidote 4.48 Kg/Ha PPI, 13 days after planting, 8 days after herbicide",65%
same,% Inhibition VELE,"Velvetleaf (VELE) [2]; […], 13 days after planting, 8 days after herbicide",70%
same,% Inhibition VELE,"Velvetleaf (VELE) [2]; […], observed 9 days later (Table 29)",90%
same,% Inhibition VELE,"Velvetleaf (VELE) [2]; […], observed 9 days later (Table 30)",75%
same,% Inhibition VELE,"Velvetleaf (VELE) [2]; […], observed 10 days after herbicide application",80%
same,% Inhibition 5 DAP VELE,Velvetleaf (VELE) [2]; in vivo,10%
same,% Inhibition 13 DAP VELE,Velvetleaf (VELE) [2]; in vivo,90%
same,% Inhibition VELE,Velvetleaf (VELE) [2]; in vivo,75% and 65% and 80% and 70% and 85%
